Entries after “also recorded” stand apart in the source; their conditions may differ.

The test system of one assay is mice. Nature of the assay: antidepressant-relevant behavioral actions after oral administration. Type of assay: in vivo, mouse.
A further assay relates to Male C57BL/6J mice. The assay is described as follows: sub-threshold social defeat stress in mice previously exposed to morphine. Type of assay: in vivo, mouse. An excerpt:
Animals: Male C57BL/6J mice (8 weeks old, Jackson laboratories) were kept in a temperature and humidity-controlled environment and maintained in a 12:12 hr light/dark cycle (lights on at 7:00 AM). Mice were singly-housed for all the studies due to increased aggression following opioid administration and were randomly assigned to treatment groups.
Drugs: (2R,6R)-HNK hydrochloride was synthesized and characterized. Absolute and relative stereochemistry for (2R,6R)-HNK was confirmed by small molecule x-ray crystallography. For the intraperitoneal injections, drugs were dissolved in 0.9% saline and given in a volume of 5 ml/kg. […]
Social interaction test: Following the sub-threshold social defeat stress, on day 16, test mice were screened for susceptibility in a social interaction/avoidance choice test. […] The time spent interacting (nose within close proximity of the cage) with the “stranger” mouse versus the empty cage was analyzed using TopScan video tracking software (CleverSys, Reston, Virginia). % Social Interaction was calculated as the time spent interacting with stranger divided by the total time interacting with the end-chamber cages×100.
Sucrose preference: Following the social interaction test, mice were assessed for sucrose preference in their home cages. […]

Regarding `N[C@@]1(c2ccccc2Cl)CCC[C@@H](O)C1=O` [(2R,6R)-HNK, (2R,6R)-hydroxynorketamine], the “oral doses exerting antidepressant-relevant behavioral actions” value in the assay with mice fell in the range of 15 to 50 mg/kg. In addition, in the assay with Male C57BL/6J mice (10 mg/kg i.p. 2 hours after sub-threshold social defeat, mice previously exposed to morphine 10 mg/kg), the “stress susceptibility phenotypes / emotional deficits (social interaction, sucrose preference, female urine sniffing, untorn nestlet weight)” value is given as “reverses emotional deficits; also recorded: reversed stress susceptibility phenotypes”. The “reinstatement of maladaptive behaviors after brief re-exposure to stress” value in the assay with Male C57BL/6J mice (10 mg/kg i.p. after the first defeats, 1 min re-exposure) is given as “prevents reinstatement”.

For the origin of these results see US20230331655A1, “HYDROXYN[…] AND METHODS OF USE THEREOF” (UNIVERSITY OF MARYLAND, BALTIMORE, priority 2020, published 2023).
